In patent publication US20050164370A1 (priority 2003, published 2005):

Assays:
[1] = system: transformed cells TM182-CRE1-ADHIPT5; type: cell-based, yeast; conditions: Table 3, TM182-CRE1-ADH-IPT5, 1 μL of 200 ppm DMSO solution per 100 μL, DOHLU+Glu, 30° C. for 24 hours
Procedure: Each of the transformed cells TM182-CYC1-CYC1IPT4, TM182-CYC1-ADHIPT4, TM182-CYC1-CYC1IPT5, TM182-CYC1-ADHIPT5, TM182-CRE1-CYC1IPT4, and TM182-CRE1-ADHIPT5 obtained in Example 16 was inoculated in 200 mL of DOHLU+Gal culture medium, and was pre-cultured at 30° C. for 36 hours. The thus obtained culture solutions were diluted with DOHLU+Glu culture medium so that OD600 became 0.200, and then the diluted ones were further diluted with DOHLU+Glu culture medium at a dilution rate of 1/200 to obtain diluted pre-cultured solutions.
A 96-well assay plate was prepared by filling each well with 1 μL of a DMSO solution of an examinee substance (Abscisic acid or 6-Benzyl aminopurine). In this regard, it is to be noted that the DMSO solution of a examinee substance was prepared so that the concentration thereof became 200 ppm. Simultaneously, an assay plate was prepared by filling each well with 1 μL of DMSO as a blank section.
Each of the diluted pre-cultured solutions was added in a volume of 100 μL per each well of both of the assay plates, and was cultured at 30° C. for 24 hours. After incubation, the turbidity of each well was measured using a plate reader.

cytokinin receptor AHK3 = biological target: T1, cytokinin receptor AHK3 (Arabidopsis thaliana, UniProt Q9C5U1); assay: Agonist-activity to cytokinin receptor, optical density of TM182-AHK3 liquid culture; type: cell-based, yeast; design: expressed in transfected cells; host or cells: yeast strain TM182 carrying plasmid p415CYC-AHK3 (pHM-1 backbone, CYC1 promoter); conditions: TM182-AHK3, examinee substance 100 μM, DOLU+Glu, 30° C. for 24 hours
T1 sequence (Q9C5U1 1-1036): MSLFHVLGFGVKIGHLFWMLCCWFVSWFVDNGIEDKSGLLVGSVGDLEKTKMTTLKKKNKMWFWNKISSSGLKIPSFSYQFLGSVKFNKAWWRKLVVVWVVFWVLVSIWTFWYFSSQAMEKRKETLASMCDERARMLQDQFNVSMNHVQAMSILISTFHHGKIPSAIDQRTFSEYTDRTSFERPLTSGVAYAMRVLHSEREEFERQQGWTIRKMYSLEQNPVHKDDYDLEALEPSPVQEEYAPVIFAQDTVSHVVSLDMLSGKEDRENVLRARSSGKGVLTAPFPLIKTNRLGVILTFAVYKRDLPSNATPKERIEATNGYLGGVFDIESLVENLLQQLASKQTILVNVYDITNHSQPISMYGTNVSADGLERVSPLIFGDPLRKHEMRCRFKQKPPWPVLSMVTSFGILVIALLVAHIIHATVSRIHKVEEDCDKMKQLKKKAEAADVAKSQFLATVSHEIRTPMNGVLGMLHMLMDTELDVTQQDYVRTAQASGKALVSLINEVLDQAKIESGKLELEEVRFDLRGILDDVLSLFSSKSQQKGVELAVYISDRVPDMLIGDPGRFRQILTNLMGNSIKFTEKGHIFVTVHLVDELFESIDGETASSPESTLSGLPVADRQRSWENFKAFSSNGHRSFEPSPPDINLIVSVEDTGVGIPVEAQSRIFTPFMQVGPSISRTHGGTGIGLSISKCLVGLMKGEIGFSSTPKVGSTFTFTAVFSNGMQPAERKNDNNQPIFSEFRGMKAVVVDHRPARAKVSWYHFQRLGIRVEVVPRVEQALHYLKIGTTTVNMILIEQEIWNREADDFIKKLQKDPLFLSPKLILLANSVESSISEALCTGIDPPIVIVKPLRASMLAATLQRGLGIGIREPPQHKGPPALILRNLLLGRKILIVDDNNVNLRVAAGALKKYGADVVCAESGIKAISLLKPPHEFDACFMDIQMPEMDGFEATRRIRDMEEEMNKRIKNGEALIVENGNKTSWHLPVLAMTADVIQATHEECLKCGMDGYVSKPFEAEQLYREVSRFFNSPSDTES
Procedure: The transformed cells TM182-AHK2, TM182-AHK2Δ and TM182-AHK3 produced in the reference example 1 were inoculated in 200 ml of DOLU+Gal culture media and pre-cultured at 30° C. for 36 hours. The pre-cultured solutions were diluted with DOLU+Glu media as to become 0.100 as the optical density (OD600) and further the resultants were diluted with DOLU+Glu media at a dilution rate of 1/200 to obtain diluted pre-cultured solutions.
An assay plate was prepared by filling respective wells of a 96-well plate with 20 μl of solutions which were prepared by diluting DMSO solution (10 mM) of each examinee substance with DOLU+Glu medium at a dilution rate of 1/100, said solutions containing each examinee substance to be […]. […]
The diluted pre-cultured solutions were added in 200 μl each into the respective wells of both assay plates and cultured at 30° C. for 24 hours and then the optical density (OD620) of each well was measured by a plate reader. The agonist-activity of the examinee substances to the cytokinin receptor was detected by comparing the optical density measured in the testing sections to which the examinee substances were added with the optical density measured in the blank sections.

CC1=CC(=O)CC(C)(C)[C@@]1(O)/C=C/C(C)=C\C(=O)O [Compound A, Abscisic acid]
absorbance (OD600) of the culture solution [1]: 0.131
optical density (OD620) of the culture solution (cytokinin receptor AHK3): 0.54

c1ccc(CNc2ncnc3nc[nH]c23)cc1 [Compound B, 6-Benzyl aminopurine]
absorbance (OD600) of the culture solution [1]: 0.293
optical density (OD620) of the culture solution (cytokinin receptor AHK3): 0.88
